The text below walks through data of article PMC12424289, “Programmable Nanostructure Assembly of a Paclitaxel Derivative Enables Tunable Anticancer Therapy via Hydrogen Bond Engineering” (ACS Nano, 2025).

The test system of data set [1] is human colon HCT116-Luc cells. Description: CCK8 antiproliferation assay, HCT116-Luc. It is filed as cell-based. The settings on record: 48 h treatment. How it is done:
(§1) The mouse breast cancer cell line 4T1 and the human ovarian cancer cell line SKOV3 were cultured in RPMI 1640 medium supplemented with 10% fetal bovine serum, 100 units·mL^–1 penicillin, and 100 μg·mL^–1 streptomycin. The human lung cancer cell line A549 and the luciferase-expressing human colorectal carcinoma cell line HCT116-Luc were cultured in high-glucose DMEM medium supplemented with 10% fetal bovine serum, 100 units·mL^–1 penicillin, and 100 μg·mL^–1 streptomycin. All cell lines were maintained at 37 °C in a Steri-Cycle 371 incubator (Thermo Scientific, USA) with a humidified atmosphere of 5% CO2. Only cells between passages 5 and 15 were used for cell-based experiments.
(§2) The antiproliferative activity of PTP was evaluated using the Cell Counting Kit-8 (CCK8) assay. PTX solution served as a positive control. Cell suspensions were prepared at a density of 3 × 10^4 cells·mL^–1 and seeded in 96-well plates at a volume of 100 μL per well. The plates were incubated for 24 h to allow cell attachment and growth. Subsequently, the culture media were replaced with fresh media containing varying concentrations of PTX or PTP solutions (100 μL per well), and the cells were incubated for an additional 48 h (n = 3). Control wells received fresh culture media alone (n = 3). […] Finally, the absorbance was measured at 450 nm using a microplate reader (Synergy H1, BioTek, USA). […]
In general terms: Tetrazolium assays rely on reduction of a dye to a coloured formazan, in cell work by metabolically active cells.

Data set [2] deals with human ovarian SKOV3 cells. As to the kind of experiment: CCK8 antiproliferation assay, SKOV3. The note with it: SK-OV-3, SKOV3, 48 h treatment. It is filed as cell-based. As to the method:
as §1, §2

Data set [3] in a line: Pharmacokinetics after intraperitoneal injection. In kind it is in vivo. The settings on record: male, Sprague-Dawley, rat, plasma; rats, single ip; PTP@HA 100.0 mg·kg^–1 PTP, PTX solution 12.0 mg·kg^–1. How it is done: For plasma samples, 50 μL of plasma was mixed with 100 μL of a docetaxel acetonitrile solution (15 ng·mL^–1) for protein precipitation. The mixture was vortexed and then centrifuged at 4 °C, 17 000 rpm for 30 min. For tissue samples, mice were euthanized at specified time points, and tissues were harvested and rinsed with saline. Two kidneys, the entire heart, spleen, lung, tumor, and 150–200 mg of liver were placed in grinding tubes. Saline was added at a ratio of 1:5 (m/v), and the tissues were ground using a freezing grinder (Jingxin, China) at 4 °C. Next, 100 μL of docetaxel acetonitrile solution (15 ng·mL^–1) was added to 50 μL of the tissue homogenate. After vortex mixing, the mixture was centrifuged at 4 °C, 17 000 rpm for 30 min. The supernatants for both plasma and tissue samples were analyzed by LC-MS as described below.
The concentrations of PTP and PTX in plasma and tissue samples were determined using liquid chromatography–mass spectrometry (LC-MS) with a G6470A system (Agilent, USA) equipped with a C18 column (2.1 × 100 mm, 2.7 μm, Agilent, USA). […]
The PTP@HA hydrogel, containing PTP at a concentration of 5.0 mg·mL^–1, was prepared by adding HA saline solution (20.0 mg·mL^–1) to solid PTP, followed by vortexed for 1 min. […] Plasma concentrations of both PTP and PTX were subsequently quantified using LC-MS (G6470A, Agilent, USA).

In the next data set the test system is human lung A549 cells. As to the kind of experiment: CCK8 antiproliferation assay, A549. It is filed as cell-based. The note with it: A549, 48 h treatment. How it is done: as §1, §2
Another data set deals with mouse breast 4T1 cells. As to the kind of experiment: CCK8 antiproliferation assay, 4T1. It is filed as cell-based. The settings on record: 4T1, 48 h treatment. As to the method:
as §1, §2

The subject of another data set is tubulin. As to the kind of experiment: Isothermal titration calorimetry with tubulin. In kind it is binding. The note with it: tubulin 180 μM titrated into 25 μM compound. As to the method: ITC experiments were performed using a Nano-ITC (TA Instruments, USA) with all samples degassed for 8 min prior to measurement. Experiments were conducted under stirring at 350 rpm. To account for background signals, control experiments were conducted and subtracted from the test data. The resulting heat values were analyzed using an independent model to extract thermodynamic parameters. For tubulin binding studies, solutions were prepared in PEM buffer containing 5% (v/v) DMSO. In each experiment, 400 μL of the […] was loaded into the sample cell, and 400 μL of PEM buffer with 5% (v/v) DMSO was placed in the reference cell. Tubulin solution (180 μM) was titrated into the sample cell in 25 injections of 2 μL each at 4 °C. A control titration of tubulin into PEM buffer (5% DMSO) was performed to account for dilution effects. To assess interactions between PTP and excipients, PTP dispersions (25 μM) were loaded into the sample cell, and water was used in the reference cell. PEG400 solution (6.0 mg·mL^–1) was titrated into a 2.0 mg·mL^–1 PTP dispersion, and HA (2.7 mg·mL^–1) into a 1.0 mg·mL^–1 PTP dispersion. Both titrations were performed at 25 °C with 25 injections of 2 μL each. Control experiments were performed by titrating PEG400 or HA into water to correct for nonspecific heat effects.
In general terms: In ITC the heat of successive injections is recorded.

In another data set the test system is Balb/c mice. Description: Maximum tolerated dose / survival in mice. It is filed as in vivo, mouse. The settings on record: iv, PTX 33.0 mg·kg^–1, after 14 days.

Molecules are shown by their SMILES.

A word on the IC50: it is the concentration at which inhibition is half-maximal. By MRT is commonly meant the average time that molecules of a dose stay in the body. What is called half-life is the time needed for the level to fall by half in the phase considered. Read a high half-life as slow loss. With `CC(=O)O[C@H]1C(=O)[C@@]2(C)[C@H]([C@H](OC(=O)c3ccccc3)[C@]3(O)C[C@H](OC(=O)[C@H](O)[C@@H](NC(=O)c4ccccc4)c4ccccc4)C(C)=C1C3(C)C)[C@]1(OC(C)=O)CO[C@@H]1C[C@@H]2O` [PTX, Paclitaxel], the half-inhibitory concentration (IC50) in data set [1] was determined as 13.1 nM; in data set [2], 37.4 nM; in the data set on human lung A549 cells, 11.3 nM; with mouse breast 4T1 cells it was 25.9 nM. Moreover, in data set [3], the mean residence time (MRT) was found to be 4.4 h. Besides, in data set [3], the half-life was 3.2 h. Moreover, the “molar ratio of tubulin to compound” value with tubulin (ITC) turned out to be 1.5. Also, in the data set with tubulin (5% DMSO, 4 °C), the “Gibbs free energy change (ΔG)” value is recorded as −27.0 kJ·mol^–1. For the same compound, the survival in the data set on Balb/c mice is reported as 83.3%.
